Here are results for two molecules from ChEMBL document CHEMBL4043290, “Structure-based Design of Pyridone-Aminal eFT508 Targeting Dysregulated Translation by Selective Mitogen-activated Protein Kinase Interacting Kinases 1 and 2 (MNK1/2) Inhibition” (J Med Chem, 2018).

Data set [1] concerns the target Leucine-rich repeat serine/threonine-protein kinase 2 (Homo sapiens) (UniProt Q5S007). Description: Inhibition of LRRK2 (unknown origin) at 1 uM relative to control.
The nature of data set [2]: Metabolic stability in rat liver microsomes assessed as parent compound remaining at 1 uM after 30 mins by LC-ESI-TOF/MS method. It counts as ADME, microsome. To be noted: read-out: Stability.
A further data set can be described thus: physchem. Particulars: octanol/water.
Data set [3] in a line: Oral bioavailability in cynomolgus monkey at 3 mg/kg by LC-ESI-TOF/MS or LC-ESI-MS/MS method. To be noted: in vivo. It counts as ADME, organism-based, Macaca fascicularis.
Data set [4] is described as follows: Oral bioavailability in Balb/c mouse at 10 mg/kg by LC-ESI-TOF/MS or LC-ESI-MS/MS method. To be noted: in vivo. The class given is ADME, organism-based.
A short description of data set [5]: Metabolic stability in human liver microsomes assessed as parent compound remaining at 1 uM after 30 mins by LC-ESI-TOF/MS method. The class given is ADME, microsome. To be noted: read-out: Stability.
For data set [6], the target named is Dual specificity protein kinase CLK4 (Homo sapiens, UniProt Q9HAZ1). As to the kind of experiment: Inhibition of CLK4 (unknown origin) at 1 uM relative to control.
Data set [7] is described as follows: Oral bioavailability in Beagle dog at 3 mg/kg by LC-ESI-TOF/MS or LC-ESI-MS/MS method. The class given is ADME, organism-based, Canis lupus familiaris. To be noted: in vivo.
The target in data set [8] is Receptor-type tyrosine-protein kinase FLT3 (Homo sapiens) (UniProt P36888). Description: Inhibition of FLT3 (unknown origin) at 1 uM relative to control.
Data set [9] has as its target Dual specificity tyrosine-phosphorylation-regulated kinase 3 (Homo sapiens) (UniProt O43781). As to the kind of experiment: Inhibition of DYRK3 (unknown origin) at 1 uM relative to control.
Data set [10] concerns the target Platelet-derived growth factor receptor alpha (Homo sapiens) (UniProt P16234). Description: Inhibition of PDGFRA (unknown origin) at 1 uM relative to control.
Data set [11] has as its target Tyrosine-protein kinase Fgr (Homo sapiens) (UniProt P09769). Description: Inhibition of FGR (unknown origin) at 1 uM relative to control.
The target in data set [12] is Vascular endothelial growth factor receptor 3 (Homo sapiens) (UniProt P35916). Description: Inhibition of FLT4 (unknown origin) at 1 uM relative to control.
Data set [13] can be described thus: Oral bioavailability in Sprague-Dawley rat at 10 mg/kg by LC-ESI-TOF/MS or LC-ESI-MS/MS method. It counts as ADME, organism-based. Particulars: in vivo.
Data set [14] has as its target T1, Serine/threonine-protein kinase BRSK1 (Homo sapiens) (UniProt Q8TDC3).
T1 sequence (whole entry): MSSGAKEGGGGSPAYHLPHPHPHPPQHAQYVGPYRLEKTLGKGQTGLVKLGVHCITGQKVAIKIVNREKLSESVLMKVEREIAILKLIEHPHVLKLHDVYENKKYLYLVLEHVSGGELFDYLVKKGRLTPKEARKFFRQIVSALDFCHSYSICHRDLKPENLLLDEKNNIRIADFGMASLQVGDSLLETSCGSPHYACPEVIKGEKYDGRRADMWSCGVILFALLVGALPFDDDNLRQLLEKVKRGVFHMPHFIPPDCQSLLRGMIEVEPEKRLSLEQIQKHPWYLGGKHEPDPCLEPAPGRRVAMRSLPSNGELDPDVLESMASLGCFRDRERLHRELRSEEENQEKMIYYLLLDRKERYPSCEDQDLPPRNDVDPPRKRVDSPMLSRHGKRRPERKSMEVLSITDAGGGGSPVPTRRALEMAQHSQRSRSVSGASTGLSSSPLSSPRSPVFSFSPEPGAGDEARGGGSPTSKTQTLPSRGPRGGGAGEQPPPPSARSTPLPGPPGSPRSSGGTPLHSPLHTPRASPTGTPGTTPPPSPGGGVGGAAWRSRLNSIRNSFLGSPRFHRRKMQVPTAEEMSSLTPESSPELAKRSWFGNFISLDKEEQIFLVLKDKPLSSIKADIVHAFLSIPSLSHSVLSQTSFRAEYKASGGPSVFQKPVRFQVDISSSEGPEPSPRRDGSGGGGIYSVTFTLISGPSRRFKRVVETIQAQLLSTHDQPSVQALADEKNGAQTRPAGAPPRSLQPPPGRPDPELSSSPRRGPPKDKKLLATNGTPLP
Description: Inhibition of BRSK1 (unknown origin) at 1 uM relative to control.

Data set [15] addresses Proto-oncogene tyrosine-protein kinase receptor Ret (Homo sapiens) (UniProt P07949). Description: Inhibition of RET (unknown origin) at 1 uM relative to control.
Data set [16] deals with Dual specificity tyrosine-phosphorylation-regulated kinase 2 (Homo sapiens) (UniProt Q92630). Description: Inhibition of DYRK2 (unknown origin) at 1 uM relative to control.
The target of data set [17] is Vascular endothelial growth factor receptor 2 (Homo sapiens) (UniProt P35968). Description: Inhibition of KDR (unknown origin) at 1 uM relative to control.
Data set [18] deals with MAP kinase-interacting serine/threonine-protein kinase 1 (Homo sapiens, UniProt Q9BUB5).
The nature of data set [19]: Metabolic stability in mouse liver microsomes assessed as parent compound remaining at 1 uM after 30 mins by LC-ESI-TOF/MS method. The class given is ADME, microsome. To be noted: read-out: Stability.
Data set [20] deals with Ribosomal protein S6 kinase alpha-6 (Homo sapiens) (UniProt Q9UK32). Description: Inhibition of RSK4 (unknown origin) at 1 uM relative to control.
Data set [21] addresses Serine/threonine-protein kinase 17B (Homo sapiens) (UniProt O94768). As to the kind of experiment: Inhibition of DRAK2 (unknown origin) at 1 uM relative to control.
For data set [22], the target named is TGF-beta receptor type-2 (Homo sapiens) (UniProt P37173). Description: Inhibition of TGFBR2 (unknown origin) at 1 uM relative to control.
For data set [23], the target named is T2, Serine/threonine-protein kinase 17A (Homo sapiens) (UniProt Q9UEE5).
T2 sequence (whole entry): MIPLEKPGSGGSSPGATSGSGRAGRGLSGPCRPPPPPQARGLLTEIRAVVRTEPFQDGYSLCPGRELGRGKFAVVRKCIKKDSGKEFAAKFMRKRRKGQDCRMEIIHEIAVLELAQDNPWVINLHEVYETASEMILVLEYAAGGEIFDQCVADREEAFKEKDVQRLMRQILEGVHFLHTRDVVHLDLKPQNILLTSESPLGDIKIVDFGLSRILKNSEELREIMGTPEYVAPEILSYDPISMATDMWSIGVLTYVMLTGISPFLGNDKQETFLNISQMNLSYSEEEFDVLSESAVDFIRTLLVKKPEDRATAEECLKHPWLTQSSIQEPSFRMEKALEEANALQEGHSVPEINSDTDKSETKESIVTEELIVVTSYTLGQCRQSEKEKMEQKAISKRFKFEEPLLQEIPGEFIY
Description: Inhibition of DRAK1 (unknown origin) at 1 uM relative to control.

For data set [24], the target named is MAP kinase-activated protein kinase 3 (Homo sapiens) (UniProt Q16644). Description: Inhibition of MAPKAPK3 (unknown origin) at 1 uM relative to control.
A further data set in a line: in vitro. To be noted: human, Caco-2.
In data set [25] the target is Receptor-interacting serine/threonine-protein kinase 2 (Homo sapiens) (UniProt O43353). Description: Inhibition of RIPK2 (unknown origin) at 1 uM relative to control.
Data set [26] can be described thus: Oral bioavailability in cynomolgus monkey at 5 mg/kg by LC-ESI-TOF/MS or LC-ESI-MS/MS method. It counts as ADME, organism-based, Macaca fascicularis. To be noted: in vivo.
A short description of data set [27]: Oral bioavailability in Beagle dog at 5 mg/kg by LC-ESI-TOF/MS or LC-ESI-MS/MS method. It counts as ADME, organism-based, Canis lupus familiaris. Particulars: in vivo.

Vascular endothelial growth factor receptor 2 (Homo sapiens), sequence (P35968 whole entry): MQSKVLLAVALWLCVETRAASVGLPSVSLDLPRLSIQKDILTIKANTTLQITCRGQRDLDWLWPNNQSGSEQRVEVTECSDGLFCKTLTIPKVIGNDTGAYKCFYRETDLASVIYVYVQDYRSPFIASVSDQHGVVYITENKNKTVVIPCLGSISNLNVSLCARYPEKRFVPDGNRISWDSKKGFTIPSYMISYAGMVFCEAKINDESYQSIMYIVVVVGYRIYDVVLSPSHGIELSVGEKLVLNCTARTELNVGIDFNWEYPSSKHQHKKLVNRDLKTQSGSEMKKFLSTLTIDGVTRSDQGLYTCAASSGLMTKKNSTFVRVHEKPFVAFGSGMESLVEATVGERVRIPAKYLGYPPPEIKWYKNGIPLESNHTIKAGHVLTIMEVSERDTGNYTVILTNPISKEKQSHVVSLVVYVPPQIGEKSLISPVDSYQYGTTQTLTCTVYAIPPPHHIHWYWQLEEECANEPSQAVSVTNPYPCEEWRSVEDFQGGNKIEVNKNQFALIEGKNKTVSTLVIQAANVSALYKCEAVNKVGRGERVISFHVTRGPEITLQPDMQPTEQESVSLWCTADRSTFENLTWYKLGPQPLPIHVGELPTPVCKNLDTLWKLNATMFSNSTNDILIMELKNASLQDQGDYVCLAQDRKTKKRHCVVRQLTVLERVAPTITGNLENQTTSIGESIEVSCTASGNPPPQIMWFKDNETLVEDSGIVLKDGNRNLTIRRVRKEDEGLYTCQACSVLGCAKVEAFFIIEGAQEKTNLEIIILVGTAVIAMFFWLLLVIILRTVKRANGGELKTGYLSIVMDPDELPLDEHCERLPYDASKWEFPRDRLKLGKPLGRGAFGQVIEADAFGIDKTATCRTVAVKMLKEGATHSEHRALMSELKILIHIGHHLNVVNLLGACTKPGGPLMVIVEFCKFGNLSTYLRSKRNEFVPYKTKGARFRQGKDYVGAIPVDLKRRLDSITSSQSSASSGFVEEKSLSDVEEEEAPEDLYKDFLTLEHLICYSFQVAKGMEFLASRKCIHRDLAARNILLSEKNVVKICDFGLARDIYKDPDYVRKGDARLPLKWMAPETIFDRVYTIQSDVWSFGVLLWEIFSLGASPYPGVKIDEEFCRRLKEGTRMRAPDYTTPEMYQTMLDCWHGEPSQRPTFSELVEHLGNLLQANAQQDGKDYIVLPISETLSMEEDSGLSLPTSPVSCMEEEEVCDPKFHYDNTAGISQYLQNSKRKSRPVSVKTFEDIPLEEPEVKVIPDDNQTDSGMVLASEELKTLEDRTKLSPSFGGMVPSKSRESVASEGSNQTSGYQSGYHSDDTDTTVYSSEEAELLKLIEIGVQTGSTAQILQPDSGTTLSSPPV
TGF-beta receptor type-2 (Homo sapiens), sequence (P37173 whole entry): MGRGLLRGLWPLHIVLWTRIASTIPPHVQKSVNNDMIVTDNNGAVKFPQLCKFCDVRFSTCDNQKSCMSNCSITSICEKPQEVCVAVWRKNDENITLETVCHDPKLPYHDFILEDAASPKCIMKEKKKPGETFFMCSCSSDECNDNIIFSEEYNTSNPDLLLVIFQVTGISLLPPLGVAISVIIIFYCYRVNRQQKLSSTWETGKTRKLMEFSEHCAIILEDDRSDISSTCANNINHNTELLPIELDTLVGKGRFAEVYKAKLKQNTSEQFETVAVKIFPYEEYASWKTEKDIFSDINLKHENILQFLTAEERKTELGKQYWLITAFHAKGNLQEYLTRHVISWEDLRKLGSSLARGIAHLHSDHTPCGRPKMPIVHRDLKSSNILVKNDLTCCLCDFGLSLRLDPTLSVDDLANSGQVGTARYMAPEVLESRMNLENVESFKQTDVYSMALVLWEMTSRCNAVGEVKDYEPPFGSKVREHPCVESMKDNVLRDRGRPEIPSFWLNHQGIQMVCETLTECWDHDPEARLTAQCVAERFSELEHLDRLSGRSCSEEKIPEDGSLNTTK
Leucine-rich repeat serine/threonine-protein kinase 2 (Homo sapiens), sequence (Q5S007 whole entry): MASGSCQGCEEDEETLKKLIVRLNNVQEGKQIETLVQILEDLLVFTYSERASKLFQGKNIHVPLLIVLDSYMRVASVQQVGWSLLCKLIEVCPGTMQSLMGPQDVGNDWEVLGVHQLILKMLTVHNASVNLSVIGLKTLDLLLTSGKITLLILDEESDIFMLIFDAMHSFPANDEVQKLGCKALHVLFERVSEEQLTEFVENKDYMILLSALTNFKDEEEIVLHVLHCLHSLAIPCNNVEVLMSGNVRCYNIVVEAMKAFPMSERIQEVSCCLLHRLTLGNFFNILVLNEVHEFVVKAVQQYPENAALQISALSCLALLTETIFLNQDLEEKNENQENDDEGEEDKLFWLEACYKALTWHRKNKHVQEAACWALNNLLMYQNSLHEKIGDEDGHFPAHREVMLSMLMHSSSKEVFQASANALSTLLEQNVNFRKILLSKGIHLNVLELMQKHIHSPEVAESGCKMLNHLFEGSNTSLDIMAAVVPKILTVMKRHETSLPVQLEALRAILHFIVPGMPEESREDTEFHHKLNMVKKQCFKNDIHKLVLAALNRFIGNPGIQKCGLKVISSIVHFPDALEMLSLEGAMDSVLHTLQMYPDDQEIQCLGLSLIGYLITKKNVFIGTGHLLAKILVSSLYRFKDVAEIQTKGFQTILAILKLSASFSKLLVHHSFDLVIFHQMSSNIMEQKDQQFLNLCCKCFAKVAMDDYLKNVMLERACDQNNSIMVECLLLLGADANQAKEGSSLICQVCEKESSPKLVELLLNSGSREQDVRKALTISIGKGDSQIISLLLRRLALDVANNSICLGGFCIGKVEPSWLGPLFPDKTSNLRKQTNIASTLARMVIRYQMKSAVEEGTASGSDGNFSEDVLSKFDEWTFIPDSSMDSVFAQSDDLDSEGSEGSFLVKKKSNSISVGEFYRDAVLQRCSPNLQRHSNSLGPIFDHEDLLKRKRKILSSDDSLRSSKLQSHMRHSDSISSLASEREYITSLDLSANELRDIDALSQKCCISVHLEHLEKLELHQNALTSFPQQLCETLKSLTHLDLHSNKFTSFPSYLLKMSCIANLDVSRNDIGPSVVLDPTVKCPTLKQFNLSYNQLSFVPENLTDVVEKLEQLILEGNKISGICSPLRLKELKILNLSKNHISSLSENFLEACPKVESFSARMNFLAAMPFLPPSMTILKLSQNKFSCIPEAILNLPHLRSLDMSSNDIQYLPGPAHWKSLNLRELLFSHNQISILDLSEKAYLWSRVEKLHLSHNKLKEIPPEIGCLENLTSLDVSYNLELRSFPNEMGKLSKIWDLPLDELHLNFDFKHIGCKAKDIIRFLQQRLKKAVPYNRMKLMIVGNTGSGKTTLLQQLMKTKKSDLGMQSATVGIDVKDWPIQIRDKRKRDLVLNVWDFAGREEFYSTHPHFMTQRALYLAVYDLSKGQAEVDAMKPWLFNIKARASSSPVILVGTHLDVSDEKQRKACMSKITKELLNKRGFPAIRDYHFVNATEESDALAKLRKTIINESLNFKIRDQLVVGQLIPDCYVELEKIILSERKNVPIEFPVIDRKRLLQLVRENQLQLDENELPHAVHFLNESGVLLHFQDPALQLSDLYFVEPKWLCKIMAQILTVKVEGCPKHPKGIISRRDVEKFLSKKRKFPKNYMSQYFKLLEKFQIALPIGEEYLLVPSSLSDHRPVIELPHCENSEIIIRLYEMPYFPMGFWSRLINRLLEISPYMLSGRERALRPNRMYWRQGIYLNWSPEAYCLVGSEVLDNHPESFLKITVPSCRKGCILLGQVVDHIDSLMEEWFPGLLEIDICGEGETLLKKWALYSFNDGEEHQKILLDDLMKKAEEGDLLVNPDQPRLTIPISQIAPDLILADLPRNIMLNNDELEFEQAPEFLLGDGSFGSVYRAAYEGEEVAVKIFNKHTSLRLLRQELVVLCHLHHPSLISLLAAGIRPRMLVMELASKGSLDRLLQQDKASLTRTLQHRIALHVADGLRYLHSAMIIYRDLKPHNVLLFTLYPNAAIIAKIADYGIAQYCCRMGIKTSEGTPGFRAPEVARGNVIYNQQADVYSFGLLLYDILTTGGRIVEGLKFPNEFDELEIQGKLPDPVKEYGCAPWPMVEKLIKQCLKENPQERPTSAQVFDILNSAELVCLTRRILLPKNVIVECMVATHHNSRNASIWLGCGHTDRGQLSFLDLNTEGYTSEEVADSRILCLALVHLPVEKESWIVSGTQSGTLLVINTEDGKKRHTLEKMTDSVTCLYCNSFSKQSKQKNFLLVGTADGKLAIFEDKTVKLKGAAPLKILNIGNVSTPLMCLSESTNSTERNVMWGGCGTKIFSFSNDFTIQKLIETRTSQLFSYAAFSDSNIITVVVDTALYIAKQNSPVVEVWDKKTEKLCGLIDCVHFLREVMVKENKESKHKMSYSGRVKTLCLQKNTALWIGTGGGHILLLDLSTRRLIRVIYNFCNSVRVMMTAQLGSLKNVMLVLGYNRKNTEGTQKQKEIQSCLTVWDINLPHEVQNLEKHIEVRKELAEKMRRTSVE
Dual specificity tyrosine-phosphorylation-regulated kinase 3 (Homo sapiens), sequence (O43781 whole entry): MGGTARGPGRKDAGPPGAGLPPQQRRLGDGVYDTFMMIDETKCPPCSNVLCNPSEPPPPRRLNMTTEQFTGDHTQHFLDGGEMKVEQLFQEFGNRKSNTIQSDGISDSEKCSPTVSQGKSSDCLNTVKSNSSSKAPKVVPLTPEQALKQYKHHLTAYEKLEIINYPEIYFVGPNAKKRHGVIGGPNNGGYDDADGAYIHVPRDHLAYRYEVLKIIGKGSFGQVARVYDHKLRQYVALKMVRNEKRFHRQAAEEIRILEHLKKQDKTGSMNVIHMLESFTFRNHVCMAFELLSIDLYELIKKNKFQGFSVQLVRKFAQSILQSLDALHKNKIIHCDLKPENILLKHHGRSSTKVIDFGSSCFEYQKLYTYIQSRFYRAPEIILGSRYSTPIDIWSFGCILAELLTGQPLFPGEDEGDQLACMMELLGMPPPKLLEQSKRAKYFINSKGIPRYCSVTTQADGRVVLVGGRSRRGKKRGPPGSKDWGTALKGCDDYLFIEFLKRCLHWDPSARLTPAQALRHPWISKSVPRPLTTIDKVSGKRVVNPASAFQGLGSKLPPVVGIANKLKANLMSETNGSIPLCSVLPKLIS

For the molecule `Nc1cc(Nc2cc(Cl)c3n(c2=O)C2(CCCC2)NC3=O)ncn1`, the inhibition in data set [1] came to 52%; in data set [6] it was 75%; in data set [8], 55%; in data set [9], 67%; in [10], 55%; in [11] it was 60%. In addition, the inhibition in data set [12] was determined as 89%; in data set [14] it was 58%; in [15] it was 87%; in [16] it was 81%; in data set [17], 96%; in data set [20], 58%. Also, the inhibition came out at 82% in [21], 74% in data set [22], 95% in [23] and 54% in data set [24]. Also, the remaining at 0.5 h, 1 µM in data set [2] came out at 73%; in data set [5], 85%; in data set [19] it was 71%. The same molecule returned a logP in “physchem” of 2.4. Further, the bioavailability is 51% in data set [3], 80% in [4], above 100% in data set [7] and 69% in [13]. This molecule registered an IC50 in data set [18] of 0.88 nM. This molecule also displayed a Papp A→B at 2 h, 5 µM in “in vitro” of 1.2 ×10⁻⁶ cm/s.

With `Nc1cc(Nc2cc(Cl)c3n(c2=O)C2(CCCCC2)NC3=O)ncn1`, the inhibition is 59% in data set [1]; 75% in data set [6]; 59% in data set [25]; 56% in data set [9]; 55% in [14]; 55% in [15]. Further, the inhibition in data set [17] turned out to be 71%; in [21], 82%; in data set [22] it was 57%; in [23] it was 96%. Moreover, the remaining at 0.5 h, 1 µM came to 69% in data set [2], 89% in data set [5] and 73% in data set [19]. Moreover, the logP in the data set “physchem” was found to be 3.2. The bioavailability in data set [4] is 58%; in [26] it was 50%; in data set [13], 28%; in [27], above 100%. Further, the Papp A→B at 2 h, 5 µM in the data set “in vitro” is 4.2 ×10⁻⁶ cm/s.
